Source: patent US20230092890A1, “1, 3, 4-Oxadiazole derivative compounds as histone deacetylase 6 inhibitor, and the pharmaceutical composition comprising the same” (Chong Kun Dang Pharmaceutical Corp., priority 2019, published 2023)

Experiments:
HDAC1 = molecular target: T1, HDAC1 (Homo sapiens, UniProt Q13547); assay: HDAC enzyme activity inhibition (in vitro), HDAC1 Fluorimetric Drug Discovery Assay Kit; format: biochemical; conditions: samples at 100, 1000 and 10000 nM; 37° C. 60 minutes; fluorescence Ex 390, Em 460; read-out: HDAC1 IC50
T1 construct: purchased Enzolifesciences BML-AK511
Procedure, shortened: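 Fluorescence read-out (Ex 390/Em 460) after developer step, 30 min at 37° C, following a 60-min 37° C enzyme reaction. Test concentrations: HDAC1 kit, 100–10000 nM (three levels); recombinant human HDAC6, 0.1–1000 nM (five levels).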

HDAC6 human recombinant = molecular target: T2, HDAC6 human recombinant (Homo sapiens, UniProt Q9UBN7); assay: HDAC enzyme activity inhibition (in vitro), HDAC6 assay; format: biochemical; conditions: samples at 0.1, 1, 10, 100 and 1000 nM; 37° C. 60 minutes; fluorescence Ex 390, Em 460; read-out: HDAC6 IC50
T2 construct: purchased Calbiochem 382180
T2 sequence (Q9UBN7 1-1215): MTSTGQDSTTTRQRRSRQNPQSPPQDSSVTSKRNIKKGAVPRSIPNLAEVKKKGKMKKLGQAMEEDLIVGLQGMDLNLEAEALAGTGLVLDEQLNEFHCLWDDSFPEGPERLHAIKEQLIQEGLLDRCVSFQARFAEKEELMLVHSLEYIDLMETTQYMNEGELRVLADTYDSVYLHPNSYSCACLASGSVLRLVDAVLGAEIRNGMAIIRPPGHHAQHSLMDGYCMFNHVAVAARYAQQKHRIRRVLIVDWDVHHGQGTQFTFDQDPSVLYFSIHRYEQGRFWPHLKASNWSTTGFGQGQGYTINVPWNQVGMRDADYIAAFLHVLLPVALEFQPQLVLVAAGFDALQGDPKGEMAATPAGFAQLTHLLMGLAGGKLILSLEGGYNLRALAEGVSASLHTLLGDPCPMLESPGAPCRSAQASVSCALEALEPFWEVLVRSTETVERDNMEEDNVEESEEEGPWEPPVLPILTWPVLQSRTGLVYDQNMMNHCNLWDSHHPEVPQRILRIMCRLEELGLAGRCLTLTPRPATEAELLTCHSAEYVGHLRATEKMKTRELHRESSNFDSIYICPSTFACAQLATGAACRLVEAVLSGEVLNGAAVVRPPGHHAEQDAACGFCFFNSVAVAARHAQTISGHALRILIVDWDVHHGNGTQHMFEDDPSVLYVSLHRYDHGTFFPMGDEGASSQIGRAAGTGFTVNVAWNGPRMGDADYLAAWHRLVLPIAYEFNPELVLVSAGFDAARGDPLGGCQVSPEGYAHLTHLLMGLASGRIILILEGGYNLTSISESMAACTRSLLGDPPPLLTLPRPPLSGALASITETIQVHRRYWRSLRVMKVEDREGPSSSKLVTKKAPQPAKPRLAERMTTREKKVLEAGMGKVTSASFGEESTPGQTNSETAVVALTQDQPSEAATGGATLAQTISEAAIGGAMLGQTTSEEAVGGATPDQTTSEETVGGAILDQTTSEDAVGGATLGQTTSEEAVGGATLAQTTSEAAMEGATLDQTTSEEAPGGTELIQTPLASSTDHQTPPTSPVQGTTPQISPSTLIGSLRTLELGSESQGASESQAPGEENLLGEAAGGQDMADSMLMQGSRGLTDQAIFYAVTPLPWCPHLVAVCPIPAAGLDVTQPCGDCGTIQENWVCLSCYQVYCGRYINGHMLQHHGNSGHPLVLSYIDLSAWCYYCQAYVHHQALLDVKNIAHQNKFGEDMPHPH
Procedure, shortened: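 Fluorescence (Ex 390, Em 460) read after a 37° C, 60 min enzyme reaction and a further 30 min developer step at 37° C. Uses recombinant human HDAC6; HDAC1 arm dosed at 100, 1000, 10000 nM.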

T1 sequence (Q13547 whole entry): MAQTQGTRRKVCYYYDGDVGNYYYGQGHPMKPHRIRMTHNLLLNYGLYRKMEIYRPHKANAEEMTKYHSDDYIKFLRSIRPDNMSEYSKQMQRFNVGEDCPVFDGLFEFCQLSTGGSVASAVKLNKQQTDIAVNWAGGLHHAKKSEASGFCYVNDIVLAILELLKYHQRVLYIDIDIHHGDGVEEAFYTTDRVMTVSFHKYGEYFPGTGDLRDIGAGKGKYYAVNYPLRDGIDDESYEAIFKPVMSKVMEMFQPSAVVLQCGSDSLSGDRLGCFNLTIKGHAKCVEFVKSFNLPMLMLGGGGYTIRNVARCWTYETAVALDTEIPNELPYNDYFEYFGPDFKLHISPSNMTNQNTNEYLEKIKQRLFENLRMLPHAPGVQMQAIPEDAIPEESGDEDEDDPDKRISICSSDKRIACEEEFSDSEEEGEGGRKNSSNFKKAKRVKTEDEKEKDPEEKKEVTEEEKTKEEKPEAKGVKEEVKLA

| SMILES | IC50 (HDAC1) [µM] | IC50 (HDAC6 human recombinant) [µM] |
| --- | --- | --- |
| CS(=O)(=O)N1CCC(n2c(=O)n(Cc3ccc(-c4nnc(C(F)F)o4)cc3)c3ccc(Cl)cc32)CC1 [Compound 202, 5-chloro-1-(4-(5-(difluoromethyl)-1,3,4-oxadiazole-2-yl)benzyl)-3-(1-(methylsulfonyl)piperidine-4-yl)-1,3-dihydro-2H-benzo[d]imidazole-2-one] | > 10 | 0.139 |
| CC(=O)N1CCC(n2c(=O)n(Cc3ccc(-c4nnc(C(F)F)o4)cn3)c3ncccc32)CC1 [Compound 184, 1-(1-acetylpiperidine-4-yl)-3-((5-(5-(difluoromethyl)-1,3,4-oxadiazole-2-yl)pyridine-2-yl)methyl)-1,3-dihydro-2H-imidazo[4,5-b]pyridine-2-one] | > 10 | 0.137 |
| CN1CC(n2c(=O)n(Cc3ccc(-c4nnc(C(F)F)o4)cc3F)c3ccccc32)C1 [Compound 22, 1-(4-(5-(difluoromethyl)-1,3,4-oxadiazole-2-yl)-2-fluorobenzyl)-3-(1-methylazetidine-3-yl)-1,3-dihydro-2H-benzo[d]imidazole-2-one] | > 10 | 0.109 |
| O=c1oc2cc(-c3ccncc3)ccc2n1Cc1ccc(-c2nnc(C(F)F)o2)cn1 [Compound 305, 3-((5-(5-(difluoromethyl)-1,3,4-oxadiazole-2-yl)pyridine-2-yl)methyl)-6-(pyridine-4-yl) benzo[d]oxazole-2(3H)-one] | > 10 | 0.05 |
| O=c1n(Cc2ccc(-c3nnc(C(F)F)o3)cc2F)c2cc(F)ccc2n1C1CCS(=O)(=O)CC1 [Compound 189, 3-(4-(5-(difluoromethyl)-1,3,4-oxadiazole-2-yl)-2-fluorobenzyl)-1-(1,1-dioxydotetrahydro-2H-thiopyran-4-yl)-5-fluoro-1,3-dihydro-2H-benzo[d]imidazole-2-one] | > 10 | 0.037 |
| COCCN1Cc2ccccc2N(Cc2ccc(-c3nnc(C(F)F)o3)cc2)C1=O [Compound 30, 1-(4-(5-(difluoromethyl)-1,3,4-oxadiazole-2-yl)benzyl)-3-(2-methoxyethyl)-3,4-dihydro quinazoline-2(1H)-one] | > 10 | 0.444 |
| O=c1oc2cc(-c3cnn(C4CCNCC4)c3)c(F)cc2n1Cc1ccc(-c2nnc(C(F)F)o2)cn1 [Compound 359, 3-((5-(5-(difluoromethyl)-1,3,4-oxadiazole-2-yl)pyridine-2-yl)methyl)-5-fluoro-6-(1-(piperidine-4-yl)-1H-pyrazole-4-yl)benzo[d]oxazole-2(3H)-one] | > 10 | 0.033 |
| CN1CCC(n2c(=O)n(Cc3ccc(-c4nnc(C(F)F)o4)cc3)c3cc(F)c(F)cc32)CC1 [Compound 95, 1-(4-(5-(difluoromethyl)-1,3,4-oxadiazole-2-yl)benzyl)-5,6-difluoro-3-(1-methylpiperidine-4-yl)-1,3-dihydro-2H-benzo[d]imidazole-2-one] | > 10 | 0.051 |
| CC(C)N1CCC(n2c(=O)n(Cc3ccc(-c4nnc(C(F)F)o4)cc3F)c3ccccc32)CC1 [Compound 15, 1-(4-(5-(difluoromethyl)-1,3,4-oxadiazole-2-yl)-2-fluorobenzyl)-3-(1-isopropylpiperidine-4-yl)-1,3-dihydro-2H-benzo[d]imidazole-2-one] | > 10 | 0.193 |
| O=c1n(Cc2ccc(-c3nnc(C(F)F)o3)cc2F)c2ccccc2n1C1COC1 [Compound 37, 1-(4-(5-(difluoromethyl)-1,3,4-oxadiazole-2-yl)-2-fluorobenzyl)-3-(oxetan-3-yl)-1,3-dihydro-2H-benzo[d]imidazole-2-one] | > 10 | 0.158 |
| O=c1n(Cc2ccc(-c3nnc(C(F)F)o3)cn2)c2cc(F)c(-c3cn[nH]c3)cc2n1CC1CCN(C2COC2)CC1 [Compound 292, 1-((5-(5-(difluoromethyl)-1,3,4-oxadiazole-2-yl)pyridine-2-yl)methyl)-6-fluoro-3-((1-(oxetan-3-yl)piperidine-4-yl)methyl)-5-(1H-pyrazole-4-yl)-1,3-dihydro-2H-benzo[d]imidazole-2-one] | > 10 | 0.003 |
| CC(C)N1CCC(n2c(=O)n(Cc3ccc(-c4nnc(C(F)F)o4)cn3)c3cc(F)ccc32)CC1 [Compound 51, 3-((5-(5-(difluoromethyl)-1,3,4-oxadiazole-2-yl)pyridine-2-yl)methyl)-5-fluoro-1-(1-isopropylpiperidine-4-yl)-1,3-dihydro-2H-benzo[d]imidazole-2-one] | > 10 | 0.032 |

Second part, the molecule after the results:

| IC50 (HDAC1) [µM] | IC50 (HDAC6 human recombinant) [µM] | SMILES |
| --- | --- | --- |
| > 10 | 0.038 | CN1CCC(n2c(=O)n(Cc3ccc(-c4nnc(C(F)F)o4)cn3)c3cc(C(F)(F)F)ccc32)CC1 [Compound 89, 3-((5-(5-(difluoromethyl)-1,3,4-oxadiazole-2-yl)pyridine-2-yl)methyl)-1-(1-methylpiperidine-4-yl)-5-(trifluoromethyl)-1,3-dihydro-2H-benzo[d]imidazole-2-one] |
| > 10 | 0.071 | Cc1ccc(-c2cc3c(cc2F)n(Cc2ccc(-c4nnc(C(F)F)o4)cn2)c(=O)n3C)o1 [Compound 177, 1-((5-(5-(difluoromethyl)-1,3,4-oxadiazole-2-yl)pyridine-2-yl)methyl)-6-fluoro-3-methy 1-5-(5-methylfuran-2-yl)-1,3-dihydro-2H-benzo[d]imidazole-2-one] |
| > 10 | 0.016 | CN1CCN(c2ncc(-c3cc4c(cc3F)n(Cc3ccc(-c5nnc(C(F)F)o5)cn3)c(=O)n4C)cn2)CC1 [Compound 342, 1-((5-(5-(difluoromethyl)-1,3,4-oxadiazole-2-yl)pyridine-2-yl)methyl)-6-fluoro-3-methy 1-5-(2-(4-methylpiperazine-1-yl)pyrimidine-5-yl)-1,3-dihydro-2H-benzo[d]imidazole-2-one] |
| > 10 | 0.013 | Cn1c(=O)n(Cc2ccc(-c3nnc(C(F)F)o3)cn2)c2ccc(-c3cccnc3)cc21 [Compound 208, 1-((5-(5-(difluoromethyl)-1,3,4-oxadiazole-2-yl)pyridine-2-yl)methyl)-3-methyl-5-(pyridine-3-yl)-1,3-dihydro-2H-benzo[d]imidazole-2-one] |
| > 10 | 0.01 | Cn1c(=O)n(Cc2ccc(-c3nnc(C(F)F)o3)cn2)c2cc(F)c(-c3cccnc3)cc21 [Compound 165, 1-((5-(5-(difluoromethyl)-1,3,4-oxadiazole-2-yl)pyridine-2-yl)methyl)-6-fluoro-3-methy 1-5-(pyridine-3-yl)-1,3-dihydro-2H-benzo[d]imidazole-2-one] |
| > 10 | 0.029 | Cn1c(=O)n(Cc2ccc(-c3nnc(C(F)F)o3)cn2)c2cc(F)c(N3CCN(Cc4cccnc4)CC3)cc21 [Compound 303, 1-((5-(5-(difluoromethyl)-1,3,4-oxadiazole-2-yl)pyridine-2-yl)methyl)-6-fluoro-3-methy 1-5-(4-(pyridine-3-ylmethyl)piperazine-1-yl)-1,3-dihydro-2H-benzo[d]imidazole-2-one] |
| > 10 | 0.054 | CC(F)(F)CN1CCC(n2c(=O)n(Cc3ccc(-c4nnc(C(F)F)o4)cn3)c3cc(Cl)ccc32)CC1 [Compound 234, 5-chloro-3-((5-(5-(difluoromethyl)-1,3,4-oxadiazole-2-yl)pyridine-2-yl)methyl)-1-(1-(2,2-difluoropropyl)piperidine-4-yl)-1,3-dihydro-2H-benzo[d]imidazole-2-one] |
| > 10 | 0.031 | CN1CCC(n2c(=O)n(Cc3ccc(-c4nnc(C(F)F)o4)cn3)c3c(F)cccc32)CC1 [Compound 76, 3-((5-(5-(difluoromethyl)-1,3,4-oxadiazole-2-yl)pyridine-2-yl)methyl)-4-fluoro-1-(1-methylpiperidine-4-yl)-1,3-dihydro-2H-benzo[d]imidazole-2-one] |
